Results: patent US20040254224A1, “Medicaments” (priority 2001, published 2004)

Molecular target: HM74 (Homo sapiens, UniProt P49019)
Conditions: membranes from HM74-expressing HEK293T cells, co-expressed with Go1α
Procedure: HEK293T cells (HEK293 cells stably expressing the SV40 large T-antigen) were maintained in DMEM containing 10% (v/v) foetal calf serum and 2 mM glutamine. Cells were seeded in 60 mm culture dishes and grown to 60-80% confluency (18-24 h) prior to transfection with pCDNA3 containing the relevant DNA species using Lipofectamine reagent. For transfection, 3 μg of DNA was mixed with 10 μl of Lipofectamine in 0.2 ml of Opti-MEM (Life Technologies Inc.) and was incubated at room temperature for 30 min prior to the addition of 1.6 ml of Opti-MEM. Cells were exposed to the Lipofectamine/DNA mixture for 5 h and 2 ml of 20% (v/v) newborn calf serum in DMEM was then added. Cells were harvested 48-72 h after transfection.
Plasma membrane-containing P2 particulate fractions were prepared from cell pastes frozen at −80° C. after harvest. All procedures were carried out at 4° C. Cell pellets were resuspended in 1 ml of 10 mM Tris-HCl and 0.1 mM EDTA, pH 7.5 (buffer A) and by homogenisation for 20 s with a polytron homogeniser followed by passage (5 times) through a 25-guage needle. Cell lysates were centrifuged at 1,000 g for 10 min in a microcentrige to pellet the nuclei and unbroken cells and P2 particulate fractions were recovered by microcentrifugation at 16,000 g for 30 min. P2 particulate fractions were resuspended in buffer A and stored at −80° C. until required.

Chain of HM74 (P49019 whole entry): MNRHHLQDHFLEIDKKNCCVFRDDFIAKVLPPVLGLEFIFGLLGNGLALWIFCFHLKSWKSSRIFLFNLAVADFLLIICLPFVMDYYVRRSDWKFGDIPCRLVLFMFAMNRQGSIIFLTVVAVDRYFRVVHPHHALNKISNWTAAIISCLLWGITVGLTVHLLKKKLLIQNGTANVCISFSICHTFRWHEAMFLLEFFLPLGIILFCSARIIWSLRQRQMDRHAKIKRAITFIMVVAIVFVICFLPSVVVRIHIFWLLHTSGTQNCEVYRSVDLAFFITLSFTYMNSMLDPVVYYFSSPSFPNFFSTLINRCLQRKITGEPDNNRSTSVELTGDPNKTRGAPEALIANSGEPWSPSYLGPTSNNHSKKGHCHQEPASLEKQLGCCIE

O=C(O)CNC(=O)c1cccnc1 [nicotinuric acid]
stimulation of [35S]GTPγS binding: not found to alter basal
